Measurements reported in patent US8148391B2 (Cephalon, Inc., priority 2006, dated 2012).
Like-named read-outs stand apart in the source and are kept apart here.

Legend:
[1] = target: T1, baculovirus-expressed ALK (Homo sapiens, UniProt Q9UM73); test: ALK Kinase Assay (ELISA-type, time-resolved fluorescence); type: biochemical
T1 construct: host or cells: baculovirus expression system
Summary of the method: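 Plates coated with phospholipase C-γ substrate (10 μg/mL in TBS); reaction started with 30 ng/ml ALK and run 15 min at 37° C. Phosphorylated substrate detected with Eu-N1-labeled PT66 antibody. IC50 from sigmoidal variable-slope fit of percent inhibition vs log concentration.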

[2] = target: T2, c-Met (cytoplasmic domain) (Homo sapiens, UniProt P08581); test: c-Met Kinase Assay (same methods as for ALK, with modifications); type: biochemical
T2 construct: 10 ng/mL c-Met (cytoplasmic domain, Invitrogen Corporation #PV3143); purchased Invitrogen Corporation PV3143
Summary of the method: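 Europium-labeled PT66 antibody (Eu-N1) detects substrate phosphorylation on wells coated with phospholipase C-γ at 10 μg/mL. The kinase, the cytoplasmic domain of c-Met at 10 ng/mL, starts the reaction, which proceeds 15 minutes at 37° C.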

[3] = ALK kinase inhibition, 1 μM ATP (Km level), read-out: ALK Activity
[4] = c-Met kinase inhibition, 1 μM ATP (Km level), read-out: cMet Activity
[5] = ALK kinase inhibition, 1 μM ATP, read-out: ALK Activity
[6] = c-Met kinase inhibition, 1 μM ATP, read-out: cMet Activity
[7] = 1 μM ATP (Km level), read-out: ALK Activity (ALK Kinase Inhibition, IC50)
[8] = 1 μM ATP (Km level), read-out: cMet Activity (c-Met Kinase Inhibition, IC50)
[9] = 1 μM ATP (Km level), 30 ng/ml ALK, 37° C., 15 minutes, read-out: ALK Activity (ALK kinase inhibition, IC50 class)
[10] = 1 μM ATP (Km level), 10 ng/mL c-Met, read-out: cMet Activity (c-Met kinase inhibition, IC50 class)

T1 sequence (Q9UM73 19-1620): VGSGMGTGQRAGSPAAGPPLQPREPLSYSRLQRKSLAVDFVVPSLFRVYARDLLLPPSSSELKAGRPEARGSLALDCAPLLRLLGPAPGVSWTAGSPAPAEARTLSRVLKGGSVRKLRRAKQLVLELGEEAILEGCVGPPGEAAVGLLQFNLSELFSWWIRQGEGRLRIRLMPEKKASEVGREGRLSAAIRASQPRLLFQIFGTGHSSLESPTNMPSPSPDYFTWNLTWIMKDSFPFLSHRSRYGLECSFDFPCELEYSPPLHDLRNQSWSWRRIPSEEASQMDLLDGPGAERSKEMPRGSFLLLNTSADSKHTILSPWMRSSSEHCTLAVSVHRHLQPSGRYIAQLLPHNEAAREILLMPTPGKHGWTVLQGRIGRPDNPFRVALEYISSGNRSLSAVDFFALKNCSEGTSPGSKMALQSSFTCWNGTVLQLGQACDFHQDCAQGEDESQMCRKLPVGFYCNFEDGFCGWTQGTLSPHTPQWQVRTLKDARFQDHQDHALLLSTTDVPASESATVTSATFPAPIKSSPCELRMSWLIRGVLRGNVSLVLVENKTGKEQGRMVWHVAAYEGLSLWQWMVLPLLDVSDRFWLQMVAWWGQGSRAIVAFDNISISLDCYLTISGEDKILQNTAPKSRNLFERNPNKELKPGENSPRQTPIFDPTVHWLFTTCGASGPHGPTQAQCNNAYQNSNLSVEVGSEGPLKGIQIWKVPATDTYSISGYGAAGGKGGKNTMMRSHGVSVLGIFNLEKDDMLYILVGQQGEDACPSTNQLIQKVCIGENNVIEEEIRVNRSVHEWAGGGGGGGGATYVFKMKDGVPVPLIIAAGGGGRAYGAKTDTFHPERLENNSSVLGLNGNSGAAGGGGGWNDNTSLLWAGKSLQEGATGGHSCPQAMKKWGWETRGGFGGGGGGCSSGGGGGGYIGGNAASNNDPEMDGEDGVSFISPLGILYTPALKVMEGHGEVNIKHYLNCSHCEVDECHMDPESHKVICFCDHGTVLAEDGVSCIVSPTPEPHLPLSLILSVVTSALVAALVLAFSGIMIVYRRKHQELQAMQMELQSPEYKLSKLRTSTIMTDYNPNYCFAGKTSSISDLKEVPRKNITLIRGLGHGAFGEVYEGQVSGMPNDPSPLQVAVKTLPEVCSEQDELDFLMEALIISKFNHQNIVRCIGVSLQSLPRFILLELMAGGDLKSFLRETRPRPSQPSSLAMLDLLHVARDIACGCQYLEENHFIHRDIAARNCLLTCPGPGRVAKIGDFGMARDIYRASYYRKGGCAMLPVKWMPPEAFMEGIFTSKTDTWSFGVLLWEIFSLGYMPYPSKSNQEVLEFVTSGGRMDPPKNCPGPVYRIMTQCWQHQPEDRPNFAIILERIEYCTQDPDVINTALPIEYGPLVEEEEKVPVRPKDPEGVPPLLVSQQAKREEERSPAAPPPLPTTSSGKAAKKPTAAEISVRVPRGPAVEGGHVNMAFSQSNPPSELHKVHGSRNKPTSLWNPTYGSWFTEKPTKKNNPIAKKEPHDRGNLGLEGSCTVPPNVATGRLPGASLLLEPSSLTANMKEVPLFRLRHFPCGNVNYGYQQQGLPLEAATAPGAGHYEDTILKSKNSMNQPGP
T2 sequence (P08581 956-1390 limits assumed): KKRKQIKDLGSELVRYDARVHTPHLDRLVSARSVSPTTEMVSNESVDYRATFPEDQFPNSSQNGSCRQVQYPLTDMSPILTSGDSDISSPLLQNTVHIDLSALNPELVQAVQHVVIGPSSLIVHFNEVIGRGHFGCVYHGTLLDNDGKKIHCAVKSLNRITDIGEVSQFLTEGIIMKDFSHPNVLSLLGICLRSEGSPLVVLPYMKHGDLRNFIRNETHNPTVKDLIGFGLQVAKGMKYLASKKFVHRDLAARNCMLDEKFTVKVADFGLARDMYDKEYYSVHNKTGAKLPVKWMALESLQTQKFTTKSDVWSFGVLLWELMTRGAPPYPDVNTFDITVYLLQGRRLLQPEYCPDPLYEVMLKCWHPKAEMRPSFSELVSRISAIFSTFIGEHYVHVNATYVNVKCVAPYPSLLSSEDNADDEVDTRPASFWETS

Structure (SMILES) | IC50 [1, 5] [µM] | IC50 [2, 6] [µM] | other results
COCCN1C2CCC1c1cc(Nc3ncc(Cl)c(Nc4c(F)cccc4C(=O)OC(C)C)n3)ccc1C2 (stereo not drawn) [Example 457, 2-{5-Chloro-2-[12-(2-methoxy-ethyl)-12-aza-tricyclo[7.2.1.0(2,7)]dodeca-2(7),3,5-trien-4-ylamino]-pyrimidin-4-ylamino}-3-fluoro-benzoic acid isopropyl ester] |  |  | IC50 [1, 3]: 0.1 to 1 µM; IC50 [2, 4]: 0.1 to 1 µM
CC(C)[C@H](Nc1nc(Nc2ccc3c(c2)CCOC(=O)N3C)ncc1Cl)C(N)=O [Example 1764, (S)-2-[5-chloro-2-(5-methyl-6-oxo-5,6,8,9-tetrahydro-7-oxa-5-aza-benzocyclohepten-2-ylamino)-pyrimidin-4-ylamino]-3-methyl-butyramide] | 1 to 10 | > 10 | 
CNC(=O)c1ccccc1Nc1nc(Nc2cc3c(cc2OC)N(C)C(=O)OCC3)ncc1Cl [Example 1505, 2-[5-Chloro-2-(3-methoxy-5-methyl-6-oxo-5,6,8,9-tetrahydro-7-oxa-5-aza-benzocyclohepten-2-ylamino)-pyrimidin-4-ylamino]-N-methyl-benzamide] | < 0.1 | 1 to 10 | 
CS(=O)(=O)N[C@@H]1CCCC[C@H]1Nc1nc(Nc2ccc3c(c2)CCN(C[C@H](O)C(F)(F)F)CC3)ncc1Cl [Example 329, N-((1R,2R)-2-{5-Chloro-2-[3-((S)-3,3,3-trifluoro-2-hydroxy-propyl)-2,3,4,5-tetrahydro-1H-benzo[d]azepin-7-ylamino]-pyrimidin-4-ylamino}-cyclohexyl)-methanesulfonamide] |  |  | IC50 [1, 3]: < 0.1 µM; IC50 [2, 4]: 1 to 10 µM
CCC1C(=O)N(CC)CCc2c1ccc(Nc1ncc(Cl)c(Nc3ccccc3C(=O)NC)n1)c2OC (stereo not drawn) [Example 152, 2-[5-Chloro-2-(1,3-diethyl-6-methoxy-2-oxo-2,3,4,5-tetrahydro-1H-benzo[d]azepin-7-ylamino)-pyrimidin-4-ylamino]-N-methyl-benzamide] |  |  | IC50 [1, 3]: < 0.1 µM; IC50 [2, 4]: 1 to 10 µM
COc1cc2c(cc1Nc1ncc(Cl)c(Nc3ccc(N(C)C)cc3-n3cccn3)n1)CCN(CC(=O)N(C)C)CC2 [Example 631, 2-{7-[5-Chloro-4-(4-dimethylamino-2-pyrazol-1-yl-phenylamino)-pyrimidin-2-ylamino]-8-methoxy-1,2,4,5-tetrahydro-benzo[d]azepin-3-yl}-N,N-dimethyl-acetamide] |  |  | IC50 [1, 7]: < 0.1 µM; IC50 [2, 8]: > 10 µM
COc1cc2c(cc1Nc1ncc(Cl)c(NC3C4C=CC(C4)C3C(N)=O)n1)CCN(CC(=O)N(C)C)CC2 (stereo not drawn) [Example 260, (2-exo,3-exo)-3-[5-Chloro-2-(3-dimethylcarbamoylmethyl-8-methoxy-2,3,4,5-tetrahydro-1H-benzo[d]azepin-7-ylamino)-pyrimidin-4-ylamino]-bicyclo[2.2.1]hept-5-ene-2-carboxylic acid amide] |  |  | IC50 [1, 3]: < 0.1 µM; IC50 [2, 4]: > 10 µM
CNC(=O)c1ccccc1Nc1nc(Nc2ccc3c(c2)CCN(C[C@H](OC)C(F)(F)F)CC3)ncc1Cl [Example 335, 2-{5-Chloro-2-[3-((S)-3,3,3-trifluoro-2-methoxy-propyl)-2,3,4,5-tetrahydro-1H-benzo[d]azepin-7-ylamino]-pyrimidin-4-ylamino}-N-methyl-benzamide] |  |  | IC50 [1, 3]: < 0.1 µM; IC50 [2, 4]: < 0.1 µM
COc1cc2c(cc1Nc1ncc(Cl)c(N[C@H]3[C@@H](C(N)=O)[C@@H]4C=C[C@H]3C4)n1)CCN(CC(=O)N1CCOCC1)CC2 [Example 1527, (1S,2S,3R,4R)-3-{5-Chloro-2-[8-methoxy-3-(2-morpholin-4-yl-2-oxo-ethyl)-2,3,4,5-tetrahydro-1H-3-benzazepin-7-ylamino]-pyrimidin-4-ylamino}-bicyclo[2.2.1]hept-5-ene-2-carboxylic acid amide] | < 0.1 | > 10 | 
CCN1C(=O)CCCc2cc(Nc3ncc(Cl)c(Nc4ccccc4OC)n3)c(OC)cc21 [Example 1318, 7-[5-Chloro-4-(2-methoxy-phenylamino)-pyrimidin-2-ylamino]-1-ethyl-8-methoxy-1,3,4,5-tetrahydro-benzo[b]azepin-2-one] |  |  | IC50 [1, 9]: 0.1 to 1 µM; IC50 [2, 10]: > 10 µM
CNC(=O)c1sccc1Nc1nc(Nc2ccc3c(c2)OCCCN3C(=O)OCCCN(C)C)ncc1Cl [Example 1428, 3-[5-Chloro-4-(2-methylcarbamoyl-thiophen-3-ylamino)-pyrimidin-2-ylamino]-7,8-dihydro-6H-5-oxa-9-aza-benzocycloheptene-9-carboxylic acid 3-dimethylamino-propyl ester] |  |  | IC50 [1, 9]: 0.1 to 1 µM; IC50 [2, 10]: 0.1 to 1 µM
O=C1CCCc2cc(Nc3ncc(Cl)c(Nc4ccccc4-c4cnco4)n3)ccc2N1 [Example 997, 7-[5-Chloro-4-(2-oxazol-5-ylphenylamino)-pyrimidin-2-ylamino]-1,3,4,5-tetrahydro-benzo[b]azepin-2-one] |  |  | IC50 [1, 7]: 0.1 to 1 µM; IC50 [2, 8]: 0.1 to 1 µM
CCNC(=O)c1ccccc1Nc1nc(Nc2cc3c(cc2OC)CCN(CC(C)(F)F)CC3)ncc1Cl [Example 788, 2-{5-Chloro-2-[3-(2,2-difluoro-propyl)-8-methoxy-2,3,4,5-tetrahydro-1H-benzo[d]azepin-7-ylamino]-pyrimidin-4-ylamino}-N-ethyl-benzamide] |  |  | IC50 [1, 7]: < 0.1 µM; IC50 [2, 8]: > 10 µM
CCN1C(=O)[C@@H](NC(=O)CN(C)C)CCc2c1ccc(Nc1ncc(Cl)c(N[C@H]3[C@@H](C(N)=O)[C@@H]4C=C[C@H]3C4)n1)c2OC (single isomer, unassigned) [Example 1355] |  |  | IC50 [1, 9]: < 0.1 µM; IC50 [2, 10]: > 10 µM
COc1cc2c(cc1Nc1ncc(Cl)c(Nc3ccccc3S(C)(=O)=O)n1)CCN(CCS(C)(=O)=O)CC2 [Example 1148, 5-Chloro-N*2*-[3-(2-methanesulfonyl-ethyl)-8-methoxy-2,3,4,5-tetrahydro-1H-benzo[d]azepin-7-yl]-N*4*-(2-methanesulfonyl-phenyl)-pyrimidine-2,4-diamine] |  |  | IC50 [1, 9]: < 0.1 µM; IC50 [2, 10]: 1 to 10 µM
Cc1cnc(-c2cccc(F)c2Nc2nc(Nc3ccc4c(c3)CCOC(=O)N4C)ncc2Cl)o1 [Example 1789, 2-{5-Chloro-4-[2-fluoro-6-(5-methyl-oxazol-2-yl)-phenylamino]-pyrimidin-2-ylamino}-5-methyl-8,9-dihydro-5H-7-oxa-5-aza-benzocyclohepten-6-one] | 0.1 to 1 | 0.1 to 1 | 

Second part, led by results:

IC50 [1, 5] [µM] | IC50 [2, 6] [µM] | Structure (SMILES) | other results
< 0.1 | < 0.1 | C=CCOc1cccc(F)c1Nc1nc(Nc2ccc3c(c2)CCOC(=O)N3C)ncc1Cl [Example 1780, 2-[4-(2-Allyloxy-6-fluoro-phenylamino)-5-chloro-pyrimidin-2-ylamino]-5-methyl-8,9-dihydro-5H-7-oxa-5-aza-benzocyclohepten-6-one] | 
< 0.1 | < 0.1 | CNC(=O)c1ccccc1Nc1nc(Nc2ccc3c(c2)CNC(=O)CC3)ncc1Cl [Example 1794, 2-[5-Chloro-2-(3-oxo-2,3,4,5-tetrahydro-1H-benzo[c]azepin-8-ylamino)-pyrimidin-4-ylamino]-N-methylbenzamide] | 
< 0.1 | < 0.1 | CNC(=O)c1cccc(F)c1Nc1nc(Nc2ccc3c(c2)N(C)CCCO3)ncc1Cl [Example 1707, 2-[5-Chloro-2-(9-methyl-6,7,8,9-tetrahydro-5-oxa-9-aza-benzocyclohepten-2-ylamino)-pyrimidin-4-ylamino]-3-fluoro-N-methyl-benzamide] | 
1 to 10 | 1 to 10 | O=C1CCCc2ccc(Nc3ncc(Cl)c(Nc4c(F)cccc4C(=O)NCC4CC4)n3)cc2N1 [Example 1712, 2-[5-Chloro-2-(2-oxo-2,3,4,5-tetrahydro-1H-benzo[b]azepin-8-ylamino)-pyrimidin-4-ylamino]-N-cyclopropylmethyl-3-fluoro-benzamide] | 
0.1 to 1 | 0.1 to 1 | C#CCNC(=O)c1cccc(F)c1Nc1nc(Nc2ccc3c(c2)N(C(=O)CN2CCCC2)CCCC3(C)C)ncc1Cl [Example 1604, 2-{5-Chloro-2-[5,5-dimethyl-1-(2-pyrrolidin-1-yl-acetyl)-2,3,4,5-tetrahydro-1H-benzo[b]azepin-8-ylamino]-pyrimidin-4-ylamino}-3-fluoro-N-prop-2-ynyl-benzamide] | 
1 to 10 | < 0.1 | CNC(=O)c1cccc(C)c1Nc1nc(Nc2ccc3c(c2)CCC(=O)NC3(C)C)ncc1Cl [Example 1830, 2-(5-Chloro-2-(1,1-dimethyl-3-oxo-2,3,4,5-tetrahydro-1H-benzo[c]azepin-7-ylamino)pyrimidin-4-ylamino)-N,3-dimethylbenzamide] | 
< 0.1 | 0.1 to 1 | CN(CCC#N)C(=O)c1ccccc1Nc1nc(Nc2ccc3c(c2)CCCC(=O)N3C)ncc1Cl [Example 1682, 2-[5-Chloro-2-(1-methyl-2-oxo-2,3,4,5-tetrahydro-1H-benzo[b]azepin-7-ylamino)-pyrimidin-4-ylamino]-N-(2-cyano-ethyl)-N-methyl-benzamide] | 
< 0.1 | < 0.1 | CCN1CCN(CC(=O)OCCOC)C(=O)c2ccc(Nc3ncc(Cl)c(Nc4ccccc4C(=O)NC)n3)cc21 [Example 1459, {8-[5-Chloro-4-(2-methylcarbamoyl-phenylamino)-pyrimidin-2-ylamino]-1-ethyl-5-oxo-1,2,3,5-tetrahydro-benzo[e][1,4]diazepin-4-yl}-acetic acid 2-methoxy-ethyl ester] | 
